# Source: publication PMC6048268, “Resveratrol Inhibits Key Steps of Steroid Metabolism in a Human Estrogen-Receptor Positive Breast Cancer Model: Impact on Cellular Proliferation” (Frontiers in Pharmacology, 2018)
# Experiments:
# E2 levels = tested on: E2 levels; set-up: method as in El-Sayed and Bayan, 2015; conditions: mice, 4 mg/kg i.p. for 7 days; ref El-Sayed and Bayan, 2015; cited from earlier work
# [1] = target: estrogen sulfation, S9 fractions from human jejunum; set-up: method as in Furimsky et al. (2008); conditions: ref Furimsky et al. (2008), read-out: Ki, inhibition of estrogen sulfation; cited from earlier work
# [2] = target: estrogen sulfation, S9 fractions from human liver; set-up: method as in Furimsky et al. (2008); conditions: ref Furimsky et al. (2008), read-out: Ki, inhibition of estrogen sulfation; cited from earlier work
# MDA-MB-231 cells = test: Cell proliferation, Casy cell counting, MDA-MB-231; assay type: cell-based, human
# Experimental: MDA-MB-231 and MCF-7 breast cancer cells were purchased from the American Type Culture Collection (ATCC; Manassas, VA, United States) and routinely cultivated at 37°C (95% humidity and 5% CO2) in phenolred-free Dulbecco’s modified Eagle medium F-12 (DMEM/F-12), fortified with 1% PenStrep®-solution and 10% fetal bovine serum (Invitrogen; Thermo Fisher Scientific, Inc., Waltham, MA, United States). All experiments were performed during the exponential growth phase of both cell lines. For the experiments, cells were seeded in 6-well-plates at a density of 1.0 × 10^6 cells per well and allowed to attach for 24 h.
# Prior to cell counting with a Casy® TT Cell Counter (OLS OMNI Life Science, Bremen, Germany), the supernatant medium was removed and cells were detached using 400 μl TrypLe® solution (Invitrogen). All experiments were performed in triplicate, and the data were reported as the means ± standard deviation of all values.
# serum E2 concentrations = tested on: serum E2 concentrations; set-up: method as in Chow et al., 2014; conditions: post-menopausal women, 1 g RES once a day for 12 weeks, non-significant; ref Chow et al., 2014; cited from earlier work
compound,measurement,setting,value
"Oc1ccc(/C=C/c2cc(O)cc(O)c2)cc1 [RES, 3,5,4′-trihydroxy-trans-stilbene]",increase in E2 levels,E2 levels,approximately twofold increase
same,Ki,[1],0.6 µM
same,Ki,[2],1.1 µM
same,number of viable cells,"MDA-MB-231 cells; 2.5 μM RES, 48 h, seeded 1.0 × 10^6",2.03 ± 0.16 × 10^6 cells
same,reduction of number of viable cells,"MDA-MB-231 cells; 100 μM RES, 48 h",68.6 ± 4.7%
same,IC50,"MDA-MB-231 cells; Homo sapiens, MDA-MB-231, 48 h, steroid-deprived, read-out: IC50 (inhibition of cell growth)",15.1 ± 4.9 µM
same,effect of simultaneous incubation with RES and E1 on cell proliferation,"MDA-MB-231 cells; RES 0–100 μM with E1, 48 h",no observable effect
same,increase in serum E2 concentrations,serum E2 concentrations,22.4%
